From the Deep4Chem optical property database

Test: solvent given as SMILES

In the case of `COc1cc2c(cc1/C=C/C1=CC(=C(C#N)C#N)CC(C)(C)C1)c1ccccc1n2C`, the fluorescence lifetime (in C1CCOC1) is reported as 6.48 ns, the fluorescence lifetime (in CC#N) is reported as 10.4 ns and the fluorescence lifetime (in CCO) is reported as 7.78 ns. The fluorescence lifetime (in CCOC(C)=O) was 6.38 ns, the fluorescence lifetime (in CN(C)C=O) was 9.14 ns and the fluorescence lifetime (in CS(C)=O) was 8.27 ns. It also gave a fluorescence lifetime (in Cc1ccccc1) of 8.3 ns, a fluorescence lifetime (in ClC(Cl)Cl) of 9.43 ns and a fluorescence lifetime (in ClCCl) of 6.7 ns.
Compound `c1ccc(-c2ccc(-c3ccc(N(c4ccccc4)c4ccccc4)cc3)c3nsnc23)cc1` has a fluorescence lifetime (in C1CCOC1) of 7.95 ns, a fluorescence lifetime (in CC(C)=O) of 3.58 ns and a fluorescence lifetime (in CCCCCC) of 6.77 ns. It also gave a fluorescence lifetime (in CCOCC) of 7.46 ns.
With `C(#Cc1cccs1)C(C#Cc1cccs1)=Cc1ccc(C=C(C#Cc2cccs2)C#Cc2cccs2)cc1` the fluorescence lifetime (in ClC(Cl)Cl) was 1.6 ns.
`N#CCc1ccccc1-c1cc2ccccc2oc1=O` showed a fluorescence lifetime (in ClC(Cl)Cl) of 1.4 ns.
Compound `COc1ccc2oc(=N)c(C#N)cc2c1` has a fluorescence lifetime (in ClCCl) of 1.6 ns.
For `CC(=O)Nc1ccc2c3cccc4cccc(c5cccc1c52)c43`, the fluorescence lifetime (in CCOC(C)=O) was 3.8 ns and the fluorescence lifetime (in CS(C)=O) was 4.5 ns.
Compound `Cc1ccc(C2=Nc3cccc4[n+]3[B-](c3ccccc3)(N2)NC(c2ccc(C)cc2)=N4)cc1` has a fluorescence lifetime (in ClCCl) of 2.6 ns.
Work on `CN(C)c1ccc(C2=Cc3cccc[n+]3[B-](F)(F)O2)cc1` yielded a fluorescence lifetime (in ClC(Cl)Cl) of 2.68 ns.
`CCCCCCCCCCCCNc1cccc2[n+]1[B-](F)(F)n1c(c3cccc4cccc1c43)=N2` showed a fluorescence lifetime (in ClCCl) of 2.5 ns.
`CN(C)c1ccc2nc(-c3ccc(C=C(C#N)C#N)cc3)sc2c1` gave a fluorescence lifetime (in C1CCCCC1) of 3.1 ns.
`c1ccc2c(c1)c1ccc3cccc4c3c1c2c1c2cccc3ccc5c6ccccc6c(c5c32)c41` showed a fluorescence lifetime (in ClCCl) of 0.75 ns.
In the case of `COc1ccc2c(c1)c(=O)c1ccccc1n2CCCCCC(=O)O`, the fluorescence lifetime (in O) is reported as 17 ns.
With `CN(C)c1ccc(C2=Nc3scc(-c4ccc(C#N)cc4)[n+]3[B-](F)(F)O2)cc1` the fluorescence lifetime (in C1CCOC1) was 1.69 ns.
In the case of `COc1ccc(C(=Cc2ccc(/C=C(\C#N)c3ccc([N+](=O)[O-])cc3)cc2)c2ccc(OC)cc2)cc1`, the fluorescence lifetime (in C1CCOC1) is reported as 1.4 ns.
With `C(#Cc1ccc(-n2c3ccccc3c3ccccc32)cc1)c1ccc(-c2nc(-c3ccc(C#Cc4ccc(-n5c6ccccc6c6ccccc65)cc4)cc3)nc(-c3ccc(C#Cc4ccc(-n5c6ccccc6c6ccccc65)cc4)cc3)n2)cc1` the fluorescence lifetime (in ClCCl) was 4.16 ns.
For `CCOC(=O)c1ccc(C2CC(c3cccc4ccccc34)=NN2c2ccc(C)cc2)cc1` (centres undefined), the fluorescence lifetime (in ClCCl) was 4.56 ns.
`O=Cc1cc2c(cc3ccc4cccc5ccc2c3c45)[nH]1` showed a fluorescence lifetime (in CCOC(C)=O) of 2.55 ns.
Compound `COC(=O)C(Cc1ccc2oc(-c3ccc(Nc4ccccc4)cc3)nc2c1)NC(=O)OC(C)(C)C` (centres undefined) has a fluorescence lifetime (in C1CCCCC1) of 1.23 ns, a fluorescence lifetime (in C1CCOC1) of 2.68 ns and a fluorescence lifetime (in C1COCCO1) of 1.83 ns. It also gave a fluorescence lifetime (in CC1CCCO1) of 2.75 ns, a fluorescence lifetime (in CC1COC(=O)O1) of 1.98 ns and a fluorescence lifetime (in CC#N) of 2.26 ns. For the same compound, the fluorescence lifetime (in CC(C)=O) was 2.96 ns, the fluorescence lifetime (in CC(C)CC(C)(C)C) was 1.01 ns and the fluorescence lifetime (in CC(C)CO) was 2.23 ns. It also gave a fluorescence lifetime (in CC(C)O) of 2.43 ns, a fluorescence lifetime (in CC(C)OC(C)C) of 2.48 ns and a fluorescence lifetime (in CC(O)CO) of 0.54 ns. It also gave a fluorescence lifetime (in CCC(C)CC) of 1.03 ns, a fluorescence lifetime (in CCCCC) of 1.14 ns and a fluorescence lifetime (in CCCCCC) of 1.02 ns. The fluorescence lifetime (in CCCCCCCCC) was 1.06 ns, the fluorescence lifetime (in CCCCCCCCCC) was 1.09 ns and the fluorescence lifetime (in CCCCCCCO) was 2.23 ns. For the same compound, the fluorescence lifetime (in CCCCCCO) was 2.41 ns, the fluorescence lifetime (in CCCCCO) was 2.89 ns and the fluorescence lifetime (in CCCCO) was 2 ns. For the same compound, the fluorescence lifetime (in CCO) was 0.8 ns, the fluorescence lifetime (in CCOC(C)=O) was 2.46 ns and the fluorescence lifetime (in CCOCC) was 2.27 ns. The fluorescence lifetime (in CN(C)C=O) was 2.45 ns, the fluorescence lifetime (in CO) was 0.43 ns and the fluorescence lifetime (in COCCOC) was 0.9 ns. It also gave a fluorescence lifetime (in CS(C)=O) of 1.92 ns, a fluorescence lifetime (in Cc1ccccc1) of 1.36 ns and a fluorescence lifetime (in Cc1ccccc1C) of 1.35 ns. The fluorescence lifetime (in ClC(Cl)Cl) was 2.26 ns, the fluorescence lifetime (in ClCCl) was 3.1 ns and the fluorescence lifetime (in NC=O) was 1.7 ns. The fluorescence lifetime (in OC1CCCCC1) was 2.23 ns, the fluorescence lifetime (in OCCO) was 2.95 ns and the fluorescence lifetime (in c1ccccc1) was 1.42 ns.
In the case of `Cc1cccc2ccccc12`, the fluorescence lifetime (in C1CCCCC1) is reported as 140 ns.
`O=C([O-])c1ccccc1-c1c2ccc(=O)cc-2oc2cc([O-])ccc12` gave a fluorescence lifetime (in CC(C)O) of 4.36 ns, a fluorescence lifetime (in CCCCCCCCO) of 4.52 ns and a fluorescence lifetime (in CCCCCCO) of 4.48 ns. The fluorescence lifetime (in CCCCO) was 4.4 ns, the fluorescence lifetime (in CCCO) was 4.42 ns and the fluorescence lifetime (in CCO) was 4.25 ns. The fluorescence lifetime (in CO) was 4.28 ns, the fluorescence lifetime (in O) was 4.16 ns and the fluorescence lifetime (in [2H]O[2H]) was 4.36 ns.
In the case of `C(#Cc1ccccc1)C(C#Cc1ccccc1)=Cc1ccc2cc(C=C(C#Cc3ccccc3)C#Cc3ccccc3)ccc2c1`, the fluorescence lifetime (in ClC(Cl)Cl) is reported as 1.1 ns.
`c1ccc([B-]23NC(C4CCCCC4)=Nc4cccc([n+]42)N=C(C2CCCCC2)N3)cc1` gave a fluorescence lifetime (in ClCCl) of 4.6 ns.
`Cc1ccc(C2=Cc3ccc4ccccc4[n+]3[B-](F)(F)O2)cc1` gave a fluorescence lifetime (in ClC(Cl)Cl) of 1.79 ns.
Work on `N[C@@H](Cc1ccc(O)cc1)C(=O)O` yielded a fluorescence lifetime (in O) of 3.27 ns.
